What was measured:
[1] = system: downmodulation of MHC-I molecules expressed on the surface of HIV infected SupT1 cells; test: cells; settings: for EC50: Human immunodeficiency virus 1, SUP-T1, read-out: EC50 for inhibition of MHC-I downmodulation utilizing the R1 parameter; for activity at 100 µM: Human immunodeficiency virus 1, SUP-T1, read-out: R1 @ 100 μM (R1 value for MHC-I downmodulation as % of the vehicle control)
[2] = in vitro; settings: human, uninfected SupT1 cells

Work on `CC1(C)Cc2cccc(OCC(=O)Nc3nc4c(-c5ccc[nH]5)cccc4s3)c2O1` [Compound 102, N-(4-(1H-Pyrrol-2-yl)benzo[d]thiazol-2-yl)-2-((2,2-dimethyl-2,3-dihydrobenzofuran-7-yl)oxy)acetamide] yielded an EC50 [1] of over 25 µM, an activity at 100 µM [1] of 20% and a CC50 [2] of over 100 µM. It also gave a CC50 at 48 h [2] of over 100 µM.

Work on `Cc1ccccc1OCC(=O)N(C)c1nc2c(s1)CCCC2` [Compound 125, N-Methyl-N-(4,5,6,7-tetrahydrobenzo[d]thiazol-2-yl)-2-(o-tolyloxy) acetamide] yielded an EC50 [1] of 0.88 µM and a CC50 at 48 h [2] of over 125 µM.

Compound `CC(C)c1ccc(NC(=O)COc2cccc3c2OC(C)(C)C3)nn1` [Compound 87, 2-((2,2-Dimethyl-2,3-dihydrobenzofuran-7-yl)oxy)-N-(6-isopropylpyridazin-3-yl)acetamide] has an EC50 [1] of 0.58 µM and a CC50 at 48 h [2] of over 100 µM.

With `Cc1nc(NC(=O)COc2cccc3c2OC(C)(C)C3)sc1C` [Compound 185, 2-((2,2-Dimethyl-2,3-dihydrobenzofuran-7-yl)oxy)-N-(4,5-dimethylthiazol-2-yl)acetamide] the EC50 [1] was 0.2 µM and the CC50 at 48 h [2] was over 90 µM.

In the case of `Cc1ccc(NC(=O)COc2cccc3c2OC(C)(C)C3)cn1` [Compound 11, 2-((2,2-Dimethyl-2,3-dihydrobenzofuran-7-yl)oxy)-N-(6-methylpyridin-3-yl) acetamide], the EC50 [1] is reported as over 25 µM, the activity at 100 µM [1] is reported as 48% and the CC50 [2] is reported as over 100 µM. The CC50 at 48 h [2] was over 100 µM.

In the case of `Cc1csc(N(C(=O)COc2cccc3c2OC(C)(C)C3)c2ccncc2)n1` [Compound 95, 2-((2,2-Dimethyl-2,3-dihydrobenzofuran-7-yl)oxy)-N-(4-methylthiazol-2-yl)-N-(pyridin-4-yl)acetamide], the EC50 [1] is reported as 0.95 µM and the CC50 at 48 h [2] is reported as over 125 µM.

With `CC1(C)Cc2cccc(OCC(=O)Nc3nc4ccccc4s3)c2O1` [Compound 143, N-(benzo[d]thiazol-2-yl)-2-((2,2-dimethyl-2,3-dihydrobenzofuran-7-yl)oxy)acetamide] the EC50 [1] was 0.41 µM and the CC50 at 48 h [2] was over 100 µM.

With `COc1ccc(NC(=O)COc2cccc3c2OC(C)(C)C3)nn1` [Compound 26, 2-((2,2-Dimethyl-2,3-dihydrobenzofuran-7-yl)oxy)-N-(6-methoxypyridazin-3-yl)acetamide] the EC50 [1] was over 25 µM, the activity at 100 µM [1] was 53% and the CC50 [2] was over 100 µM. For the same compound, the CC50 at 48 h [2] was over 100 µM.

Work on `Cc1ccc(CN(C(=O)COc2cccc3c2OC(C)(C)C3)c2ccc(C)cn2)nc1` [Compound 49, 2-((2,2-Dimethyl-2,3-dihydrobenzofuran-7-yl)oxy)-N-(5-methylpyridin-2-yl)-N-((5-methylpyridin-2-yl)methyl)acetamide] yielded an EC50 [1] of 3.1 µM and a CC50 at 48 h [2] of over 125 µM.

Work on `Cc1ccc(NC(=O)CCc2cccc3c2OC(C)(C)C3)nn1` [Compound 103, 3-(2,2-Dimethyl-2,3-dihydrobenzofuran-7-yl)-N-(6-methylpyridazin-3-yl) propanamide] yielded an EC50 [1] of 1.48 µM and a CC50 at 48 h [2] of over 100 µM.

In the case of `Cc1ccnc(NC(=O)COc2cccc3c2OC(C)(C)C3)n1` [Compound 179, 2-((2,2-Dimethyl-2,3-dihydrobenzofuran-7-yl)oxy)-N-(4-methylpyrimidin-2-yl)acetamide], the EC50 [1] is reported as over 25 µM and the CC50 at 48 h [2] is reported as over 100 µM.

For `Cc1csc(NC(=O)COc2cccc3c2OC(C)(C)C3)n1` [Compound 181, 2-((2,2-Dimethyl-2,3-dihydrobenzofuran-7-yl)oxy)-N-(4-methylthiazol-2-yl) acetamide], the EC50 [1] was 0.62 µM and the CC50 at 48 h [2] was over 90 µM.

Compound `COc1ccc(N(C(=O)COc2cccc3c2OC(C)(C)C3)c2nc(C)cs2)cc1` [Compound 62, 2-((2,2-Dimethyl-2,3-dihydrobenzofuran-7-yl)oxy)-N-(4-methoxyphenyl)-N-(4-methylthiazol-2-yl)acetamide] has an EC50 [1] of 0.48 µM and a CC50 at 48 h [2] of over 100 µM.
